Consider two compounds from patent US20240226110A1, “5-HT2C AGONIST FOR USE IN TREATING CONDITIONS ASSOCIATED WITH CENTRAL HYPOVENTILATION” (APNIMED, INC. (DELAWARE), priority 2021, published 2024).

In test [1] the target is T1, serotonin (5-HT) 2C receptor (Rattus norvegicus, UniProt P08909).
T1 construct: increased genioglossus activity and reduced upper airway collapsibility in anesthetized rats; from tissue; host or cells: anesthetized rats (in vivo; hypoglossal motor nucleus / brainstem)
T1 sequence (P08909 33-460): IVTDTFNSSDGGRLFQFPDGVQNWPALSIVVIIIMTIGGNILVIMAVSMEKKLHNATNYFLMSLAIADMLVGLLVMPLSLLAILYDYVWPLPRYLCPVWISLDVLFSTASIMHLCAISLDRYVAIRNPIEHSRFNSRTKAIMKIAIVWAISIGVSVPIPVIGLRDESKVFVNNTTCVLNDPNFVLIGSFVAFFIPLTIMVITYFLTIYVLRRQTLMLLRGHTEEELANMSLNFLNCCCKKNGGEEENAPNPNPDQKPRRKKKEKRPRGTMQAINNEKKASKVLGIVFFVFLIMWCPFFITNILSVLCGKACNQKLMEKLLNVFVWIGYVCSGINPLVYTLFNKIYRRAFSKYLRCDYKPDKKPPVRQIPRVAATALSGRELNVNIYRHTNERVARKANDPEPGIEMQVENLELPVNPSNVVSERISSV
As to conditions: anesthetized rats; cited from earlier work.

In test [2] the test system is OSA patients. Description: Crossover pilot trial, lorcaserin 15 mg or placebo before bedtime for one night; polysomnography with pneumotach and oronasal mask. Format: in vivo, human. As to conditions: single patient, hypopneas present in both conditions. The method, then: In a crossover pilot trial including 6 OSA patients, the patients were administered in random order lorcaserin 15 mg or placebo before bedtime for one night.
Patients were outfitted with the usual polysomnography equipment plus a pneumotach and oronasal mask for accurate ventilation measurements. The effect of lorcaserin on several ventilatory parameters reflecting the upper airway collapsibility and muscle activity were measured using validated algorithms.

As for `COc1cc(CC(C)N)c(OC)cc1I` (stereo not drawn) [DOI, 2,5-dimethoxy-4-iodoaminophentamine], in test [1], the genioglossus activity result was “increased” and the upper airway collapsibility result is “reduced”.
With `C[C@H]1CNCCc2ccc(Cl)cc21` [lorcaserin, (1R)-8-chloro-1-methyl-2,3,4,5-tetrahydro-1H-3-benzazepine], in test [2], the “ventilation during NREM sleep of a patient, lorcaserin night vs placebo (FIG. 2)” value is listed as “increased substantially”.
